Laboratory results published in ChEMBL document CHEMBL4382194, “New Modalities, Technologies, and Partnerships in Probe and Lead Generation: Enabling a Mode-of-Action Centric Paradigm” (J Med Chem, 2018).
pEC50, pKd: −log10 of the molar value. Numbered stars: 1 amine (or outer) side, 2 acyl side, 3 side chain; on linkers, the order of the positions; unused ones are H or OH. Bridge positions count the residues as written; N and C are the ends. Peptide text beside a SMILES is read from it. TBMB = c1c(C[*:1])cc(C[*:3])cc1C[*:2]

Assays:
[1] = Modulation of full length SMN2 mRNA (unknown origin) splicing by luciferase reporter gene assay; parameters: species or system Homo sapiens
80S Ribosome = experiment: Inhibition of human 80S ribosome-mediated PCSK9 translation expressed in CHO-K1 cells assessed as reduction in PCSK9 secretion; type: cell-based
[2] = biological target: T1, Epidermal growth factor receptor substrate 15 (Homo sapiens, UniProt P42566); experiment: Inhibition of stonin-2 binding to Eps15 (unknown origin)
T1 sequence (P42566 whole entry): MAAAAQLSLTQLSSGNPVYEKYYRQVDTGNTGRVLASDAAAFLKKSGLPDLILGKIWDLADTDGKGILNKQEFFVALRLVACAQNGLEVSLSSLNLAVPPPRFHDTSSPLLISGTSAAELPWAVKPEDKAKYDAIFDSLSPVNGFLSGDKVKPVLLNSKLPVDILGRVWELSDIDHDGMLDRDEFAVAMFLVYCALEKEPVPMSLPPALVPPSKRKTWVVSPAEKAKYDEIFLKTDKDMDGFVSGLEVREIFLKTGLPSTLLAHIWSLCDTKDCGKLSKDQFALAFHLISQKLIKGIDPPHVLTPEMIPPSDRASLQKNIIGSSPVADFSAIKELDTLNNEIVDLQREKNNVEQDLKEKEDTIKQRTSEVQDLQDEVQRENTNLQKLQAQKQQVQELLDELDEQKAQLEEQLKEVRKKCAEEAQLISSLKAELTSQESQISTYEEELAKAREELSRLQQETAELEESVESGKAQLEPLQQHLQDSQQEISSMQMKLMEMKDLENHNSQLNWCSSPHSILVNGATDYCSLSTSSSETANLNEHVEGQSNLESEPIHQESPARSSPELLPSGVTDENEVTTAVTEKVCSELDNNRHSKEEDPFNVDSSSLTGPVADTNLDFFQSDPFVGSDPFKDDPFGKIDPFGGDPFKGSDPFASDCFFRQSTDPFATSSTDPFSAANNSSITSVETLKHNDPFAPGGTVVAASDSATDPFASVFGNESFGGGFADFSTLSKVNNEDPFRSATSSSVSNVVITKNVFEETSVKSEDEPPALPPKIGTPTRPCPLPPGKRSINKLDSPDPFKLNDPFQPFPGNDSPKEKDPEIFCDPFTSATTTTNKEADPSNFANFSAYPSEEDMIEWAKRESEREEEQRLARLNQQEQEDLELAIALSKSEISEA

Plasma kallikrein = Plasma kallikrein (Homo sapiens, UniProt P03952); experiment: Binding affinity to human plasma kallikrein
Homo sapiens [3] = species on record: Homo sapiens; experiment: Selectivity ratio of Ki for human MC1R expressed in HEK cell membranes to Ki for human MC4R expressed in HEK cell membranes; type: cell-based
Homo sapiens [4] = species on record: Homo sapiens; experiment: Selectivity ratio of Ki for human MC2R expressed in HEK cell membranes to Ki for human MC4R expressed in HEK cell membranes; type: cell-based
Homo sapiens [5] = species on record: Homo sapiens; experiment: Selectivity ratio of Ki for human MC5R expressed in HEK cell membranes to Ki for human MC4R expressed in HEK cell membranes; type: cell-based

Sequence of Plasma kallikrein (P03952 20-390 limits assumed): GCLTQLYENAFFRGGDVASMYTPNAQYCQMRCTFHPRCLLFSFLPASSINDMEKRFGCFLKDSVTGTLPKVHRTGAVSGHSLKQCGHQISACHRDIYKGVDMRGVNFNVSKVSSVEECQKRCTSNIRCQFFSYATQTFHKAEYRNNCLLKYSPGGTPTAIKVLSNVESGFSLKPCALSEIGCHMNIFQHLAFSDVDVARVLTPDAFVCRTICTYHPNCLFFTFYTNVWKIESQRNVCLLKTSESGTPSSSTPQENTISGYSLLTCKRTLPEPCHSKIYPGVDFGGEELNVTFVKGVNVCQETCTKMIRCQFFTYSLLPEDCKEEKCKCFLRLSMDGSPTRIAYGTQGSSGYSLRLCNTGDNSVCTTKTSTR
Sequence of Plasma kallikrein (P03952 391-638 limits assumed): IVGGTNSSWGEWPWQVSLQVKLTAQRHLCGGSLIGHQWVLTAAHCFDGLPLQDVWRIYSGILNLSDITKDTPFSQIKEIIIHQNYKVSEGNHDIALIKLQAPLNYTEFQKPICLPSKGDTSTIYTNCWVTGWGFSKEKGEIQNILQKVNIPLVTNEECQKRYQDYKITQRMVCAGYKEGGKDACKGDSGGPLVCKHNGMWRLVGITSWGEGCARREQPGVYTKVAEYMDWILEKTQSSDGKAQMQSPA

With `CN(c1ccc(-c2ccc(-c3cn[nH]c3)cc2O)nn1)C1CC(C)(C)NC(C)(C)C1` as the compound, how does the pEC50 [1] read?
Its pEC50 is 8.30.

With `COc1ccc(CCC(=O)N(c2nccc3c2CC=CC3)[C@@H]2CCCNC2)cc1` as the compound, how does the pEC50 (80S Ribosome) read?
The pEC50 was 5.66.

With `C[C@@H]1NC(=O)[C@H](CCCNC(=N)N)NC(=O)[C@H](Cc2c[nH]c3ccccc23)NC(=O)[C@@H]2CCCN2C(=O)[C@H](N)CSCc2cccc(c2)CSC[C@@H](C(=O)O)NC(=O)[C@H](Cc2ccccc2)NC(=O)[C@@H]2CCCN2C(=O)[C@H](CC(N)=O)NC(=O)[C@H]([C@@H](C)O)NC1=O` as the compound, how does the pKd [2] read?
Its pKd is 6.43.

With `CC(C)C[C@@H]1NC(=O)[C@H](C)NC(=O)[C@H](CCC(=O)O)NC(=O)[C@H](CC(=O)O)NC(=O)[C@H](C)NC(=O)[C@@H]2CCCN2C(=O)[C@@H]2CSCc3cc(cc(c3)CSC[C@@H](C(=O)NCC(=O)O)NC1=O)CSC[C@H](NC(=O)[C@H](C)N)C(=O)N[C@@H](CO)C(=O)N[C@@H](CC(=O)O)C(=O)N[C@@H](CCCNC(=N)N)C(=O)N[C@@H](Cc1ccccc1)C(=O)N[C@@H](CCCNC(=N)N)C(=O)N[C@@H](CC(N)=O)C(=O)N2` (H-ACSDRFRNCPADEALCG-OH; linker 2-9-16 via TBMB) as the compound, how does the pKd (Plasma kallikrein) read?
Its pKd is 7.70.

For `CC(C)C[C@@H]1NC(=O)CNC(=O)[C@H](CC(N)=O)NC(=O)[C@H](CCCNC(=N)N)NC(=O)[C@H]([C@@H](C)O)NC(=O)[C@@H]2CSSC[C@@H]3NC(=O)[C@H]([C@@H](C)O)NC(=O)CNC(=O)CNC(=O)[C@H](C(C)C)NC(=O)[C@@H]4CSSC[C@H](NC(=O)[C@H]([C@@H](C)O)NC(=O)[C@H](CSSC[C@H](NC(=O)[C@H](C(C)C)NC(=O)[C@@H]5CCCN5C1=O)C(=O)NCC(=O)N[C@@H](CCC(=O)O)C(=O)N[C@@H]([C@@H](C)O)C(=O)N4)NC(=O)CNC(=O)[C@@H]1CCCN1C(=O)[C@H]([C@@H](C)O)NC(=O)[C@H](CC(N)=O)NC3=O)C(=O)N[C@@H](CO)C(=O)N[C@@H](Cc1c[nH]c3ccccc13)C(=O)N1CCC[C@H]1C(=O)N[C@@H](C(C)C)C(=O)N2`, which Ratio Ki (Homo sapiens [3]) is on record?
The Ratio Ki was 100 to 300.

What about the Ratio Ki (Homo sapiens [4]) of the same compound?
Its Ratio Ki is 100 to 300.

What about the Ratio Ki (Homo sapiens [5]) of the same compound?
Its Ratio Ki is 100 to 300.
